From US8961680B2, “Solvent formulations” (TBF Environmental Technology Inc., priority 2013, dated 2015)

Experiments:
[1] = single components, MEK, acetone; cited from earlier work
[2] = Hansen solubility parameters of blends, single components, MEK and acetone; settings: MEK, acetone, δ^2 = δD^2 + δP^2 + δH^2
Description: In some embodiments, a solvent composition according to the present disclosure includes an acetate ester, such as MA, EA, or TBAc, in combination with additional reagents to increase dispersion and decrease hydrogen bonding and/or to decrease the polarity of the composition. […] Accordingly, in some embodiments, a solvent composition according to the present disclosure may be formulated according to Hansen solubility parameters (HSP) (Hansen, 1999) and may have: a dispersion parameter (δD) between about 7.7 and about 8.5; a polarity parameter (δP) between about 4 and about 5.2; and a hydrogen bonding parameter (δH) between about 3.0 and about 3.6. Such parameters result in a Hansen Solubility Parameter (δ MPa) of about 9.0 to about 10.4, where δ^2=δD^2+δP^2+δH^2.
In alternative embodiments, a solvent composition according to the present disclosure may have: a dispersion parameter (δD) between about 7.5 and about 8; a polarity parameter (δP) between about 3 and about 4; and a hydrogen bonding parameter (δH) between about 3.2 and about 4. Such parameters result in a Hansen Solubility Parameter (δ MPa) of about 8.68 to about 9.79, where δ^2=δD^2+δP^2+δH^2. In some embodiments, a solvent composition according to the present disclosure includes a composition with HSP values similar to those of acetone. […]

[3] = reference solvents; cited from earlier work
[4] = Evaporation rate relative to n-butyl acetate (=1); format: physicochemical; settings: Example 2
Description: Evaporation rates can be expressed relative to the evaporation of n-butyl acetate (=1), as a standard.

[5] = published value; cited from earlier work
[6] = cited from earlier work

Row | Compound | δD (dispersion) [1] | δH (hydrogen bonding) [1] | δP (polarity) [1] | δ (MPa) [2] [MPa] | flash point [3] [°C] | evaporation rate [4] | published MEK ER [5] | solubility in water ([6]; room temperature) [%] | stability ([6]; strong aqueous bases or aqueous acids)
1 | CC(C)=O [Acetone, acetone, reference compound] | 7.7 | 3.5 | 5.2 | 9.929 | −20 |  |  |  | 
2 | COC(=O)OC [DMC, dimethyl carbonate] | 8.5 | 1.9 | 4.7 |  |  |  |  |  | 
3 | CCOC(C)=O [Ethyl acetate, ethyl acetate] | 7.7 | 3.5 | 2.3 |  |  |  |  |  | 
4 | CCC(C)=O [MEK, methyl ethyl ketone, reference compound] | 7.82 | 2.49 | 4.4 |  | −9 | 3.8 | 4.0 |  | 
5 | COC(C)=O [Methyl acetate, methyl acetate] | 7.58 | 3.72 | 3.52 |  | −4 |  |  | 25 | not stable
6 | CC1COC(=O)O1 (stereo not drawn) [PC, propylene carbonate] | 9.8 | 2 | 8.8 |  |  |  |  |  | 
7 | FC(F)(F)c1ccc(Cl)cc1 [PCBTF, parachlorobenzotrifluoride] | 8.8 | 1.9 | 2.9 |  |  |  |  |  | 
8 | CC(=O)OC(C)(C)C [TBA, tert-butyl acetate] | 7 | 2.9 | 1.7 | 7.765 |  |  |  |  | 
